{"source": "patent US10495630B2", "about": "“Methods for the determination of compounds or compositions for the treatment of lipofuscin related diseases and compounds or compositions” (KATAIRO GMBH, priority 2014, dated 2019)", "key": {"[1]": {"test_system": "HuRPE, RPE cells isolated from human donor eyes that contain melanin and lipofuscin", "assay": "Cellular verteporfin uptake in HuRPE cells", "type": "in vitro ADME", "conditions": "for Verteporfin in the cells after incubation: medium with 278 nM Verteporfin", "procedure": "(§1) For testing factors influencing the cellular uptake of verteporfin to two cell types used:\nHuRPE, RPE cells isolated from human donor eyes that contain melanin and lipofuscin\n(§2) The cells were treated with 200 μl of a culture medium that contained 278 nM Verteporfin for the indicated time, the culture medium was discarded, the cells trypsinized, resuspended in 500 μl medium and counted."}, "[2]": {"test_system": "ARPE-19, a human RPE cell line that lacks melanin and lipofuscin", "assay": "Cellular verteporfin uptake in ARPE-19 cells", "type": "in vitro ADME", "conditions": "for Verteporfin in the cells after incubation: medium with 278 nM Verteporfin", "procedure": "as §1\nARPE-19, a human RPE cell line that lacks melanin and lipofuscin\nas §2"}, "[3]": {"test_system": "patient with putative dry AMD", "assay": "Clinical use of the photosensitizer to treat AMD, blue light laser retinal fluorescence", "type": "in vivo", "conditions": "intravenous 6 mg/m^2 or ca 4 μg intravitreal; days 7, 14 and 28 versus pre-treatment", "procedure": "A patient with putative dry AMD is examined and baseline retinal fluorescence is determined using the blue laser imaging device (Heidelberg engineering). The patient is subject to an intravenous dose of 6 mg/m^2 verteporf in by means of infusion of 30 ml over 10 minutes. An alternative to intravenous application is the direct intravitreal application of verteporf in. In this case, ca 4 μg of verteporfin is administered to an affected single eye. Fluorescence after 1, 2 and 4 weeks is compared with fluorescence at baseline. The eyes are treated alternately.\nIn the standard verteporfin treatment, fifteen minutes after the start of the infusion, a laser light at 689 nm delivered 50 J/cm^2 by application of an intensity of 600 mW/cm^2 over 83 seconds using a spot size with a diameter 1000 μm. […] After administration of verteporfin to a patient an exposure of the eyes of the patient to mild indoor light of about 500 lux. Alternatively, low filtering sunglasses can be used as a means to maintain an exposure of the eyes of the patient to 500 lux when outdoors. The exposure should be maintained for a period of at least 6 h per day.\nBlue light laser retinal fluorescence is measured at days 7, 14 and 28 after treatment and compared with pre-treatment values. Specific reductions of retinal fluorescence>1-20% are on post-treatment examination. […]"}, "[4]": {"assay": "In vitro (cell-free) degradation of A2E in aqueous solution, LCMS", "type": "biochemical", "conditions": "for A2E / A2E (% control): A2E 20 μM + verteporfin 25 μM; for A2E (% control): control = A2E non-illuminated", "procedure": "The degradation of N-retinylidene-N-retinylethanolamine (A2E)—component of lipofuscin—in an aqueous solution water was measured in the presence of potential degradation mediators and light illumination.\nIn a cell-free assay, A2E was dissolved in deionized H2O in a concentration of 20 μM and the solution was divided into two parts. To one part of the A2E solution verteporfin was added in an amount of 25 μM. […]\nThe amounts of A2E and its epoxides (A2E+O, A2E+2O) remaining were quantified by combined liquid chromatography and mass spectroscopy (LCMS) using the transitions indicated in Table 1."}, "melanin A2E particles": {"test_system": "melanin A2E particles", "assay": "Assay for binding to A2E melanin particles", "set-up": "species or system S. officinalis", "conditions": "FIG. 3A; 37° C., 4 h", "procedure": "To study the binding of A2E to melanin, a suspension of 2 mg/ml natural melanin (S. officinalis) is prepared in PBS, pH 7.4. The melanin suspension is brought to 37° C. and sonicated for 15 min to form a uniform suspension. The melanin suspension (0.75 ml) is measured in aliquots into glass test tubes (12×75 mm) under continuous shaking to avoid sedimentation. The solution of A2E (0.75 ml) is added to the above-mentioned melanin aliquots, and the tubes will be incubated in a shaker incubator at 37° C. and 300 rpm for 4 h.\nControls are prepared by incubating A2E in the absence of melanin in incubation medium and by incubating melanin without A2E. Compounds are added to melanin suspension from stock solutions. After incubation, the suspensions are centrifuged at 13,000 rpm for 15 min at room temperature to remove the melanin granules. The supernatant is collected, diluted with acetonitrile and analyzed by an LC-MS/MS method to determine the concentration of […] in the supernatant. The kinetic parameters of binding study, i.e., maximal binding capacity (rmax) and the binding affinity (k) are determined for A2E according to the previously reported method (Cheruvu et al., 2008).\nA high percentage of soraprazan and demethoxysoraprazan—about 46% and about 53%, respectively—are found bound to the melanin A2E particles."}, "Abca4 (−/−) mice [5]": {"test_system": "Abca4 (−/−) mice", "assay": "A2E concentration in eyes of Abca4 (−/−) mice after intravitreal injection, HPLCMSMS", "type": "in vivo", "conditions": "for response vs control in vivo at 20000 µg/mL: Mus musculus, read-out: % of A2E relative to age matched untreated", "text": "[…] […] The left eye was not treated and maintained as a control. Untreated eyes of age-matched mice lacking the Abca4 transporter were an additional control.\nThe concentration in each treated eye was then expressed as a percentage of the average concentration in all untreated eyes in the mice of the same age.\nThe left eye was not treated and maintained as a control. Untreated eyes of age-matched mice lacking the Abca4 transporter were an additional control.\nThe left eye was not treated and maintained as a control. Untreated eyes of age-matched mice lacking the Abca4 transporter were an additional control. […] Tryptophan is capable of absorbing and re-radiating light energy, as is riboflavin.\nWater solutions were diluted 1:3 with acetonitrile and then sealed in vials for injection. 6 μL of the water acetonitrile solutions were injected onto a 2×50 mm Phenyl derived HPLC column (3 μm) and eluted with a gradient from 20% acetonitrile to 100% acetonitrile over 4 minutes at a flow rate of 500 μL/minute."}, "Abca4 (−/−) mice [6]": {"test_system": "Abca4 (−/−) mice", "assay": "Verteporfin injection into the vitreous of Abca4 (−/−) mice, micrographs of semi-thin sections", "type": "in vivo", "conditions": "2 μl intravitreal, 12 month old mice, four weeks after injection, normal daylight", "procedure": "2 μl of a Verteporfin solution were injected into the vitreous of eyes from Abca4 (−/−) mice (12 month old) which lack the Abca4 transporter in the disk membranes of photoreceptors. Four weeks after injection the eyes of the mice were enucleated, embedded into the epoxy resin Epon™ and cut into semi-thin sections. As a control eyes of age-matched untreated mice lacking the Abca4 transporter were prepared in the same way. […] The RPE cell layer is marked by arrows in the Figure. Comparing the micrographs of the semi-thin section of eyes of untreated (FIG. 5a) and treated (FIG. 5b) mice the cytoplasm of the RPE cells of untreated mice appears much denser due to the targeting of confluent lipofuscin components. […] In treated eyes predominately melanin granules remained in the cytoplasm of RPE cells."}, "RPE cells": {"test_system": "RPE cells", "conditions": "healthy monkeys, human RPE cells from aged donors, mouse model for Stargardt's Disease; EP 2080513 A1 and literature; cited from earlier work"}, "[7]": {"test_system": "human retinal pigment epithelium (RPE) cells", "assay": "Degradation of lipofuscin in human RPE cells (micrographs after one week)", "type": "cell-based", "conditions": "test compound alone (SAD 50 μg/ml; cardioxane 10, 50 or 100 μM), one week incubation", "procedure": "To explore the role of the reactive chemical species the human retinal pigment epithelium (RPE) cells were treated with the super oxide anion donor (SAD) soraprazan ((7R,8R,9R)-2,3-Dimethyl-8-hydroxy-7-ethoxy-9-phenyl-7,8,9,10-tetrahydro-imidazo-[1,2-h][1,7]-naphthyridin)—a member of the THPE family—either alone or in combination with a known radical oxygen scavenger, cardioxane.\nAfter growing the hRPE-cells to confluence, the test compounds were added to seven cell cultures and the cells were incubated at 37° C. and 5% CO2. The SAD was added to the cell cultures in a concentration of 50 μg/ml either alone or in combination with cardioxane in a concentration of 10 μM, 50 μM or 100 μM. Additionally, three cell cultures were incubated only with cardioxane in a concentration of 10 μM, 50 μM or 100 μM. As control, one cell culture was grown without test compounds.\nAfter one week of incubation micrographs of the differently incubated RPE cells were taken as shown in FIG. 2A to H. In the original images, lipofuscin in cells is visible as a yellow-gold-orange fluorescent structure, before a blue background. In the grey scale reproduction in FIG. 2 the yellow-gold-orange structure appear light grey (yellow) or dark grey (gold-orange) before a grey background. Areas of degradation of lipofuscin in the hRPE cells appears as bright blue to whitish structures which appear white in the in the grey scale reproduction and are circled in FIG. 2A.\nThe bright blue structures are only observed in the experimental set up with SAD alone (FIG. 2A)."}, "[8]": {"assay": "Solubility remark on the test substance", "type": "physicochemical", "conditions": "compared with the other tetracycline test substances, 20 mg/ml solution or suspension"}, "[9]": {"conditions": "dyes and porphyrins, intravitreal 2 μl of 2 mg/mL, one week after injection"}, "[10]": {"conditions": "redox active small molecules and chelator, intravitreal 2 μl of 20 mg/ml, 16 hours after injection"}}, "note": "Like-named read-outs stand apart in the source and are kept apart here.", "data": [{"compound": "verteporfin", "values": [{"measurement": "Verteporfin in the cells after incubation", "setting": "[1]; HuRPE, 1 h", "value": 339, "unit": "nM"}, {"measurement": "Verteporfin in the cells after incubation", "setting": "[1]; HuRPE, 18 h", "value": 1206, "unit": "nM"}, {"measurement": "Increase of verteporfin concentration in the cells after 18 h", "setting": "[1]; HuRPE, 18 h versus 1 h", "value": "about four-fold"}, {"measurement": "Concentration of verteporfin in HuRPE compared to ARPE-19", "setting": "[1]; after 1 h of incubation", "value": "more than two-fold"}, {"measurement": "Verteporfin in the cells after incubation", "setting": "[2]; ARPE-19, 1 h", "value": 159, "unit": "nM"}, {"measurement": "Verteporfin in the cells after incubation", "setting": "[2]; ARPE-19, 18 h", "value": 351, "unit": "nM"}, {"measurement": "Increase of verteporfin concentration in the cells after 18 h", "setting": "[2]; ARPE-19, 18 h versus 1 h", "value": "about two-fold"}, {"measurement": "Specific reductions of retinal fluorescence", "setting": "[3]", "value": "1-20%"}, {"measurement": "A2E", "setting": "[4]; 689 nm, 83 s", "value": 14.338, "unit": "µM"}, {"measurement": "A2E (% control)", "setting": "[4]; 689 nm, 83 s", "value": 44, "unit": "% control"}, {"measurement": "A2E", "setting": "[4]; non-illuminated, 5 min", "value": 28.864, "unit": "µM"}, {"measurement": "A2E (% control)", "setting": "[4]; non-illuminated, 5 min", "value": 89, "unit": "% control"}, {"measurement": "A2E", "setting": "[4]; white light, 5 min", "value": 1.295, "unit": "µM"}, {"measurement": "A2E (% control)", "setting": "[4]; white light, 5 min", "value": 4, "unit": "% control"}, {"measurement": "Proportion of compound bound to the melanin A2E particles after incubation", "setting": "melanin A2E particles", "value": "bind to the A2E melanin particles although to a lower percentage"}, {"measurement": "% of A2E relative to age matched untreated", "setting": "Abca4 (−/−) mice [5]; [9]", "value": 90, "unit": "%"}, {"measurement": "Concentration A2E (μM) in the treated eye", "setting": "Abca4 (−/−) mice [5]; [9]", "value": 27, "unit": "µM"}, {"measurement": "Removal of lipofuscin from the cytoplasm of RPE cells", "setting": "Abca4 (−/−) mice [6]", "value": "substantial amounts of lipofuscin and melanolipofuscin were removed from the cytoplasm of RPE cells"}]}, {"compound": "COCCO[C@@H]1c2ccn3c(C)c(C)nc3c2N[C@H](c2ccccc2)[C@H]1O", "note": "[Soraprazan, (7R,8R,9R)-2,3-Dimethyl-8-hydroxy-7-(2-methoxyethoxy)-9-phenyl-7,8,9,10-tetrahydro-imidazo[1,2-h] [1,7]naphthyridine]", "values": [{"measurement": "Removal of natural lipofuscin from RPE cells", "setting": "RPE cells", "value": "remove natural lipofuscin from RPE cells"}, {"measurement": "Degradation of the lipofuscin component A2E in cell free systems", "setting": "[4]; cell free, in solution under illumination by visible light", "value": "degraded"}, {"measurement": "Proportion of compound bound to the melanin A2E particles after incubation", "setting": "melanin A2E particles", "value": "about 46%"}, {"measurement": "response vs control in vivo at 20000 µg/mL", "setting": "Abca4 (−/−) mice [5]; [10]", "value": 61, "unit": "%"}, {"measurement": "Concentration A2E (μM) in the treated eye", "setting": "Abca4 (−/−) mice [5]; [10]", "value": 31, "unit": "µM"}, {"measurement": "Degradation / removal of lipofuscin in hRPE cells", "setting": "[7]", "value": "removal of lipofuscin"}]}, {"compound": "CN(C)[C@@H]1C(O)=C(C(N)=O)C(=O)[C@@]2(O)C(O)=C3C(=O)c4c(O)ccc(Cl)c4[C@@H](O)[C@H]3C[C@@H]12", "note": "[Demeclocycline]", "values": [{"measurement": "Solubility", "setting": "[8]", "value": "notably less soluble"}, {"measurement": "response vs control in vivo at 20000 µg/mL", "setting": "Abca4 (−/−) mice [5]; 168 h, tetracycline antibiotics, intravitreal 2 μl of 20 mg/ml, one week after injection", "value": 89, "unit": "%"}, {"measurement": "Concentration A2E (μM) in the treated eye", "setting": "Abca4 (−/−) mice [5]; tetracycline antibiotics, intravitreal 2 μl of 20 mg/ml, one week after injection", "value": 37, "unit": "µM"}]}]}
